Type: physicochemical
Details: vs Pt reference electrode; mobile phase 50 mM LiClO4 in 50:50 water/ACN; porous graphitic working electrode
Experimental: A standard phenol mixture (100 μM) was dissolved in (50:50) water/ACN to form a sample solution. Mobile phase A consisted of 50 mM LiClO4 in water, while mobile phase B consisted of 50 mM LiClO4 in ACN; a 50:50 mix was used. The sample solution was introduced into an Eksigent ExpressLC system through a micro-injector (40 nL) and separated on an HPLC column (Eksigent Technologies, 300 μm i.d., 15 cm; 3 μm C18 particles). The eluent from the column was run sequentially through a low-dispersion UV detector (Eksigent Technologies) and then through an electrochemical detection system according to an embodiment of the present invention.
The electrochemical detection system had two independent cells in series, connected by a fused silica capillary.

Row | Compound | E1/2 [mV]
1 | Oc1ccc(Cl)cc1Cl [2,4-dichlorophenol] | 305
2 | Cc1ccc(O)c(C)c1 [2,4-dimethylphenol] | 304
3 | Oc1ccccc1Cl [2-chlorophenol] | 139
4 | Cc1cc(O)ccc1Cl [4-chloro-3-methylphenol] | 314
5 | Oc1ccccc1 [phenol] | 336
